According to the CheMixHub drug solubility set:

Assay: xn = mol fraction of the nth substance listed, in the solute-free solvent

COC(=O)Nc1nc2ccccc2[nH]1 + CCCO + O
solubility (g/100 g solution)
Settings	278.15 K	283.15 K	288.15 K	293.15 K	298.15 K	303.15 K	308.15 K	313.15 K	318.15 K
x2 = 0.03228	0.000759	0.000937	0.00117	0.00145	0.00179	0.00212	0.00255	0.00307	0.00365
x2 = 0.06986	0.00122	0.00153	0.00195	0.00246	0.00308	0.00372	0.00456	0.00552	0.00671
x2 = 0.1138	0.00157	0.00198	0.00262	0.00333	0.00428	0.00526	0.0066	0.00814	0.01
x2 = 0.1665	0.0017	0.00223	0.00302	0.00394	0.00516	0.00653	0.00832	0.0105	0.0132
x2 = 0.2308	0.0017	0.00229	0.00318	0.00426	0.0057	0.00739	0.00966	0.0124	0.016
x2 = 0.3105	0.00161	0.00218	0.0032	0.00441	0.00599	0.00796	0.0107	0.0141	0.0185
x2 = 0.4108	0.00149	0.0021	0.00313	0.00441	0.00614	0.00837	0.0115	0.0155	0.0208
x2 = 0.5455	0.00136	0.00196	0.00302	0.00436	0.00622	0.0087	0.0123	0.0169	0.0232
x2 = 0.7314	0.00123	0.00179	0.00287	0.00425	0.00617	0.00889	0.0128	0.0181	0.0254

CC(C)C(=O)Nc1ccc([N+](=O)[O-])c(C(F)(F)F)c1 + CCO + O
solubility (g/100 g solution)
Settings	278.15 K	283.15 K	288.15 K	293.15 K	298.15 K	303.15 K	308.15 K	313.15 K	318.15 K	323.15 K
x2 = 0.04165	0.00282	0.00366	0.00476	0.00623	0.00797	0.0102	0.0129	0.0162	0.0203	0.0251
x2 = 0.08908	0.0183	0.0236	0.0305	0.0388	0.0499	0.0632	0.0793	0.0976	0.122	0.148
x2 = 0.1436	0.0774	0.0967	0.124	0.158	0.199	0.246	0.305	0.377	0.462	0.568
x2 = 0.2068	0.289	0.358	0.447	0.563	0.694	0.851	1.04	1.26	1.54	1.86
x2 = 0.2812	0.894	1.09	1.34	1.62	1.93	2.32	2.77	3.31	3.89	4.58
x2 = 0.3698	2.17	2.59	3.2	3.88	4.59	5.48	6.38	7.52	8.74	10.2
x2 = 0.4772	4.83	5.78	6.84	8.03	9.49	11	12.8	14.7	16.8	19.1
x2 = 0.6101	8.9	10.5	12.3	14.3	16.5	19	21.5	24.4	27.2	30.6
x2 = 0.7788	13.7	15.9	18.4	21.1	24.4	27.7	30.7	34.4	38.1	41.7

Nc1cc(-c2ccncc2)c[nH]c1=O + CCO + O
solubility (g/100 g solution)
Settings	278.15 K	283.15 K	288.15 K	293.15 K	298.15 K	303.15 K	308.15 K	313.15 K	318.15 K	323.15 K
x2 = 0.04165	0.00114	0.00134	0.00159	0.00187	0.00218	0.00251	0.00288	0.00327	0.00372	0.00424
x2 = 0.08908	0.00176	0.00207	0.00246	0.00288	0.00334	0.00384	0.0044	0.00498	0.00565	0.00642
x2 = 0.1436	0.00254	0.00304	0.00354	0.00413	0.00483	0.00549	0.00631	0.00722	0.00814	0.00941
x2 = 0.2068	0.00365	0.00427	0.00505	0.00593	0.00696	0.00785	0.009	0.0101	0.0116	0.0132
x2 = 0.2812	0.00514	0.00605	0.00709	0.0083	0.00956	0.0109	0.0125	0.014	0.0158	0.0179
x2 = 0.3698	0.0062	0.00747	0.00879	0.0103	0.0119	0.0137	0.0156	0.0178	0.0203	0.023
x2 = 0.4772	0.00811	0.00922	0.0108	0.0129	0.0146	0.0167	0.0193	0.0219	0.0247	0.0282
x2 = 0.6101	0.00938	0.0112	0.013	0.0153	0.0176	0.0202	0.0231	0.0259	0.029	0.033
x2 = 0.7788	0.0106	0.0125	0.0148	0.0174	0.0202	0.0229	0.026	0.0294	0.0329	0.0368

Nc1ncc(Br)nc1Br + CCO + O
solubility (g/100 g solution)
Settings	278.15 K	283.15 K	288.15 K	293.15 K	298.15 K	303.15 K	308.15 K	313.15 K	318.15 K	323.15 K
x2 = 0.04165	0.0211	0.0254	0.0296	0.0345	0.0394	0.044	0.0494	0.0552	0.0608	0.0668
x2 = 0.08908	0.0644	0.0768	0.0889	0.102	0.116	0.128	0.142	0.158	0.172	0.188
x2 = 0.1436	0.124	0.148	0.171	0.197	0.222	0.245	0.271	0.299	0.326	0.354
x2 = 0.2068	0.179	0.214	0.249	0.286	0.324	0.358	0.395	0.438	0.479	0.521
x2 = 0.2812	0.211	0.256	0.304	0.349	0.397	0.444	0.493	0.546	0.604	0.661
x2 = 0.3698	0.245	0.296	0.35	0.412	0.474	0.527	0.589	0.656	0.726	0.798
x2 = 0.4772	0.274	0.338	0.41	0.481	0.546	0.618	0.693	0.776	0.863	0.957
x2 = 0.6101	0.321	0.396	0.476	0.557	0.644	0.729	0.82	0.919	1.03	1.15
x2 = 0.7788	0.4	0.489	0.59	0.683	0.792	0.891	1	1.13	1.26	1.4

O=C1C=CC(=O)N1c1ccccc1Br + CCO + O
solubility (g/100 g solution)
Settings	278.15 K	283.15 K	288.15 K	293.15 K	298.15 K	303.15 K	308.15 K	313.15 K	318.15 K	323.15 K
x2 = 0.04165	0.529	0.674	0.862	1.08	1.34	1.67	2.03	2.48	2.98	3.59
x2 = 0.08908	0.965	1.24	1.54	1.93	2.39	2.94	3.58	4.39	5.22	6.22
x2 = 0.1436	1.66	2.09	2.65	3.22	3.94	4.8	5.87	6.98	8.31	9.86
x2 = 0.2068	2.5	3.13	3.83	4.75	5.68	6.85	8.18	9.81	11.5	13.3
x2 = 0.2812	3.54	4.34	5.21	6.34	7.51	9.04	10.5	12.3	14.3	16.5
x2 = 0.3698	4.32	5.25	6.3	7.63	8.97	10.7	12.4	14.4	16.6	18.8
x2 = 0.4772	4.85	5.92	7.08	8.5	10	11.8	13.7	15.7	18.1	20.8
x2 = 0.6101	5.33	6.52	7.78	9.33	11	12.9	15.1	17.4	19.9	22.6
x2 = 0.7788	5.65	6.85	8.21	9.83	11.7	13.6	15.8	18.6	20.8	23.7

O=c1cc(CBr)c2ccccc2[nH]1 + CCO + O
solubility (g/100 g solution)
Settings	278.15 K	283.15 K	288.15 K	293.15 K	298.15 K	303.15 K	308.15 K	313.15 K	318.15 K
x2 = 0.04165	0.0134	0.0174	0.023	0.0295	0.038	0.0476	0.0598	0.0753	0.0924
x2 = 0.08908	0.0233	0.0297	0.037	0.0455	0.0569	0.0694	0.0854	0.104	0.123
x2 = 0.1436	0.0341	0.042	0.0509	0.0622	0.075	0.0906	0.106	0.127	0.151
x2 = 0.2068	0.0469	0.0559	0.0666	0.0787	0.0931	0.11	0.128	0.148	0.172
x2 = 0.2812	0.0609	0.0715	0.0837	0.0964	0.112	0.13	0.148	0.168	0.193
x2 = 0.3698	0.0732	0.0845	0.0974	0.111	0.128	0.145	0.163	0.184	0.209
x2 = 0.4772	0.0832	0.0948	0.109	0.123	0.138	0.157	0.176	0.196	0.221
x2 = 0.6101	0.0917	0.103	0.116	0.131	0.147	0.164	0.182	0.202	0.224
x2 = 0.7788	0.0963	0.108	0.12	0.134	0.15	0.165	0.182	0.201	0.219
